Test results reported in ChEMBL document CHEMBL1201862, “PubChem BioAssay data set” (2004).
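Briefly, cells in 96-well plates were exposed to five compound concentrations for 48 h, and endpoints were estimated by linear interpolation. At the GI50, growth is halved.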 Calls of active or inactive are those of the source. Rule as the data show it: active = GI50 up to about 1.1 µM and inactive = higher.

Assays:
Experiment in all cases: NCI-60 cell line screen, 48 h
HCC 2998 = tested on: HCC 2998
COLO 205 = tested on: COLO 205
SF-295 = tested on: SF-295
NCI-H522 = tested on: NCI-H522
HCT-116 = tested on: HCT-116
SNB-19 = tested on: SNB-19
KM12 = tested on: KM12
ACHN = tested on: ACHN
HOP-62 = tested on: HOP-62
T47D = tested on: T47D
TK-10 = tested on: TK-10
OVCAR-3 = tested on: OVCAR-3
OVCAR-4 = tested on: OVCAR-4
SNB-75 = tested on: SNB-75
HT-29 = tested on: HT-29
OVCAR-8 = tested on: OVCAR-8
BT-549 = tested on: BT-549
NCI/ADR-RES = tested on: NCI/ADR-RES
A549 = tested on: A549
CCRF-CEM = tested on: CCRF-CEM

Row | Structure (SMILES) | GI50 (HCC 2998) | GI50 (COLO 205) | GI50 (SF-295) | GI50 (NCI-H522) | GI50 (HCT-116) | GI50 (SNB-19) | GI50 (KM12) | GI50 (ACHN) | GI50 (HOP-62) | GI50 (T47D) | GI50 (TK-10) | GI50 (OVCAR-3) | GI50 (OVCAR-4) | GI50 (SNB-75) | GI50 (HT-29) | GI50 (OVCAR-8) | GI50 (BT-549) | GI50 (NCI/ADR-RES) | GI50 (A549) | GI50 (CCRF-CEM)
1 | CCC(=O)NCCc1c2c3c(ccnc3c3ncsc13)-c1ccccc1N2 [KUANONIAMINE C] | 0.692 µM (active) | 1.45 µM (inactive) | 1.12 µM (active) | 2.62 µM (inactive) | 0.582 µM (active) | 4.36 µM (inactive) | 2.33 µM (inactive) | 0.583 µM (active) | 2.94 µM (inactive) | 6.75 µM (inactive) | 6.32 µM (inactive) | 10.5 µM (inactive) | 30.4 µM (inactive) | 6.89 µM (inactive) | 0.541 µM (active) | 3.28 µM (inactive) | 2.69 µM (inactive) | 4.99 µM (inactive) | 0.771 µM (active) | 2.86 µM (inactive)
2 | CCOP(=O)(OCC)C(NC(=O)OCC(Cl)(Cl)Cl)n1nnc(C(=O)OC)c1C(=O)OC (stereo not given) | > 100 µM (inactive) | > 100 µM (inactive) | > 100 µM (inactive) | > 100 µM (inactive) | > 100 µM (inactive) | > 100 µM (inactive) | > 100 µM (inactive) | > 100 µM (inactive) | > 100 µM (inactive) | > 100 µM (inactive) | > 100 µM (inactive) | > 100 µM (inactive) | > 100 µM (inactive) | > 100 µM (inactive) | > 100 µM (inactive) | > 100 µM (inactive) | > 100 µM (inactive) | > 100 µM (inactive) | > 100 µM (inactive) | > 100 µM (inactive)
3 | O=C(O)c1[nH]c(=O)[nH]c(=O)c1CN1CCCCC1 | > 100 µM (inactive) | > 100 µM (inactive) | > 100 µM (inactive) | > 100 µM (inactive) | > 100 µM (inactive) | > 100 µM (inactive) | > 100 µM (inactive) | > 100 µM (inactive) | > 100 µM (inactive) | > 100 µM (inactive) | > 100 µM (inactive) | > 100 µM (inactive) | > 100 µM (inactive) | > 100 µM (inactive) | > 100 µM (inactive) | > 100 µM (inactive) | > 100 µM (inactive) | > 100 µM (inactive) | > 100 µM (inactive) | 0.0553 µM (active)
4 | CNCCN[C@@H]1c2cc3c(cc2[C@@H](c2cc(OC)c(O)c(OC)c2)[C@H]2C(=O)OC[C@@H]21)OCO3 | 0.474 µM (active) | 1.23 µM (inactive) | 0.0973 µM (active) | 0.251 µM (active) | 0.432 µM (active) | 0.291 µM (active) | 0.406 µM (active) | 0.106 µM (active) | 0.141 µM (active) | 0.138 µM (active) | 1.49 µM (inactive) | 0.968 µM (active) | 5.3 µM (inactive) | 0.274 µM (active) | 0.494 µM (active) | 0.252 µM (active) | 0.207 µM (active) | 68.2 µM (inactive) | 0.0708 µM (active) | 0.0138 µM (active)
5 | O=C(O)C(F)(F)C(F)(F)C(F)(F)C(F)(F)C(=O)O | > 100 µM (inactive) | > 100 µM (inactive) | > 100 µM (inactive) | > 100 µM (inactive) | > 100 µM (inactive) | > 100 µM (inactive) | > 100 µM (inactive) | > 100 µM (inactive) | > 100 µM (inactive) | > 100 µM (inactive) | > 100 µM (inactive) | > 100 µM (inactive) | > 100 µM (inactive) | > 100 µM (inactive) | > 100 µM (inactive) | > 100 µM (inactive) | > 100 µM (inactive) | > 100 µM (inactive) | > 100 µM (inactive) | > 100 µM (inactive)
6 | CC(=O)c1c(SCCN2CCCCCC2)n(-c2ccccc2)c(=S)n(-c2ccccc2)c1=O | 4.3 µM (inactive) | 2.03 µM (inactive) | 35.9 µM (inactive) | 1.43 µM (inactive) | 6.81 µM (inactive) | 51.1 µM (inactive) | 18.6 µM (inactive) | 1.68 µM (inactive) | 19.5 µM (inactive) | 2.31 µM (inactive) | 2.07 µM (inactive) | 3.13 µM (inactive) | 20.9 µM (inactive) | 13.8 µM (inactive) | 7.4 µM (inactive) | 10.7 µM (inactive) | 16.6 µM (inactive) | 34.5 µM (inactive) | 6.82 µM (inactive) | 0.0462 µM (active)
7 | Cc1ccc(CC2(OCCN(C)C)CCC(C(C)(C)C)CC2)cc1 (stereo not given) | 1.98 µM (inactive) | 2.05 µM (inactive) | 5.22 µM (inactive) | 3.53 µM (inactive) | 2.38 µM (inactive) | 4.39 µM (inactive) | 3.62 µM (inactive) | 6.87 µM (inactive) | 3.01 µM (inactive) | 2.87 µM (inactive) | 4.47 µM (inactive) | 9.68 µM (inactive) | 4.16 µM (inactive) | 6.81 µM (inactive) | 2.13 µM (inactive) | 4.62 µM (inactive) | 4.61 µM (inactive) | 6.73 µM (inactive) | 3.6 µM (inactive) | 2.41 µM (inactive)
